PMC4686831, “Identification of an allosteric binding site for RORγt inhibition” (Nature Communications, 2015)
Read-outs that look alike come from different tables or passages of the source. One block for each compound: values may come before it.

What was measured:
human RORγt LBD = target: T1, human RORγt LBD (Homo sapiens, UniProt P51449); assay: HTRF / TR-FRET cofactor peptide recruitment assay; format: biochemical; conditions: Fig. 2a
T1 construct: The human RORγt LBD used for the HTRF assay; made in house; host or cells: Escherichia coli BL21(DE3)
Description: The human RORγt LBD used for the HTRF assay was expressed as a His6-tag fusion protein from the pET15b expression vector in Escherichia coli BL21(DE3) cells. Cells transformed with this vector were grown in 2 × YT medium supplemented with ampicillin until an OD600=0.7 was reached. Protein expression was then induced with 0.1 mM isopropyl-b-d-thiogalactoside (IPTG). After incubation for 16 h at 16 °C, cell cultures were collected by centrifugation. The cells were lysed via sonication and the protein was purified via Ni^2+-affinity column chromatography.
The homogeneous TR-FRET assays were performed in triplicate with 20 nM His6-RORγt and 100 nM biotin labelled cofactor peptide. […] Assay buffer contained 100 mM HEPES (pH 7.5), 100 mM NaCl, 5 mM dithiothreitol (DTT) and 0.1% bovine serum albumin. The plates (white 384-well plates Greiner Bio-One) were incubated for 2 h at 4 °C before the FRET ratio was measured in a Tecan Infinite F500 plate reader. The data were analysed using Origin software.

[1] = test system: Human mesenchymal stem cells (MSCs); assay: Adipogenesis of human mesenchymal stem cells (PPARγ dependent); conditions: read-out: IC50, inhibition of adipogenesis
[2] = test system: adiponectin gene expression; assay: Adiponectin gene expression in MSCs; conditions: read-out: IC50, inhibition of adiponectin gene expression
[3] = test system: IL17a mRNA expression in EL4 cells; assay: Quantitative IL17a RT-PCR in EL4 cells; format: cell-based, mouse; conditions: 10 μM, 24 h, vs DMSO, normalized to GAPDH
Description: EL4 cells (Sigma-Aldrich) were grown in DMEM (Gibco). At 24 h after the cells were seeded onto a 12-well plate, the cells were treated with ligands 1–3 (from 10 mM stock in DMSO) or DMSO. After 24 h, the cells were collected and RNA was isolated using a RNeasy Plus Micro Kit (Qiagen) and reverse transcribed using the iScrip cDNA biosynthesis kit (Bio-Rad). Quantitative RT–PCR was performed to analyse mRNA levels of mouse IL17a levels using SYBR green technology (Bio-Rad) on a CFX Real-Time System (Bio-Rad). Primer sequences used for IL17a:[45] Fw: 5′-[…]-3′, Rev: 5′-[…]-3′ and Gapdh: Fw: 5′-[…]-3′, Rev: 5′-[…]-3′. The level of IL17a mRNA expression was normalized to that of Gapdh expression. All data are expressed as the mean±s.e.m. (n=6). Statistical analysis was performed using an one-way analysis of variance comparing against the DMSO control following Dunnett post hoc test.

RXRa = RXRa (Homo sapiens, UniProt P19793); assay: Receptor reporter assay selectivity panel: RXRa
Description: (§1) * Receptor Reporter Assay Selectivity Panel- Assays were performed by Indigo Bioscience (State
(§2) College, PA) according to their established protocols. The AR, ER, GR, MR, and PR assays utilize full
(§3) length receptor constructs whereas all others are chimeric with the GAL4 DNA binding domain.

CAR3 = CAR3 (Homo sapiens, UniProt Q14994); assay: Receptor reporter assay selectivity panel: CAR3
Description: as §1, §2, §3

TRa = TRa (Homo sapiens, UniProt P10827); assay: Receptor reporter assay selectivity panel: TRa
Description: as §1, §2, §3

LXRb = LXRb (Homo sapiens, UniProt P55055); assay: Receptor reporter assay selectivity panel: LXRb
Description: as §1, §2, §3

RXRg = RXRg (Homo sapiens, UniProt P48443); assay: Receptor reporter assay selectivity panel: RXRg
Description: as §1, §2, §3

CAR2 = CAR2 (Homo sapiens, UniProt Q14994); assay: Receptor reporter assay selectivity panel: CAR2
Description: as §1, §2, §3

PPARd = PPARd (Homo sapiens, UniProt Q03181); assay: Receptor reporter assay selectivity panel: PPARd
Description: as §1, §2, §3

ERa = ERa (Homo sapiens, UniProt P03372); assay: Receptor reporter assay selectivity panel: ERa
Description: as §1, §2, §3

[4] = test system: CD36 and FABP4 gene expression in MSCs; design: dose or concentration left out as unconfirmed; conditions: MRL-299, data not shown
AR = AR (Homo sapiens, UniProt P10275); assay: Receptor reporter assay selectivity panel (Indigo Bioscience): AR
Description: as §1, §2, §3

CAR1 = CAR1 (Homo sapiens, UniProt Q14994); assay: Receptor reporter assay selectivity panel: CAR1
Description: as §1, §2, §3

PPARg = PPARg (Homo sapiens, UniProt P37231); assay: Receptor reporter assay selectivity panel: PPARg
Description: as §1, §2, §3

PR = PR (Homo sapiens, UniProt P06401); assay: Receptor reporter assay selectivity panel: PR
Description: as §1, §2, §3

PXR = target: T2, PXR (Homo sapiens, UniProt O75469); assay: Receptor reporter assay selectivity panel: PXR
T2 sequence (O75469 146-434 limits assumed): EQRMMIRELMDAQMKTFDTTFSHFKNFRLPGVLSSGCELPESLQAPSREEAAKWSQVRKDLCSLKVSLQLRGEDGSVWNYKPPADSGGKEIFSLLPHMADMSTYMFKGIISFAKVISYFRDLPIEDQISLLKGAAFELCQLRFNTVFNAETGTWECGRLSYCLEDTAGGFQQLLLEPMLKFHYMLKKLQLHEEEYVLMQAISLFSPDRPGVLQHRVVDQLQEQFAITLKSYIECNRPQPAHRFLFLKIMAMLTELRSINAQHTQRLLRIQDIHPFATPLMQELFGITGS
Description: as §1, §2, §3

FXR = FXR (Homo sapiens, UniProt Q96RI1); assay: Receptor reporter assay selectivity panel: FXR
Description: as §1, §2, §3

MR = MR (Homo sapiens, UniProt P08235); assay: Receptor reporter assay selectivity panel: MR
Description: as §1, §2, §3

LXRa = LXRa (Homo sapiens, UniProt Q13133); assay: Receptor reporter assay selectivity panel: LXRa
Description: as §1, §2, §3

[5] = test system: IL-17 production in human PBMCs; assay: PBMC Th17 polarization and IL-17 production assay; format: cell-based; conditions: 96 h, 4 days, mean±s.d., read-out: hPBMC IL17A IC50
Description: Test compounds were prepared as 10 mM stocks in DMSO and serially diluted 1:3 to provide an eight-concentration titration. […] Stimulatory cytokines were added to final concentrations of 25 ng ml^−1 IL-1B, 10 ng ml^−1 IL-23, 0.5 ng ml^−1 IL-2 and 10 ng ml^−1 IL-6 (all cytokines from R&D Systems). In addition, T-Activator CD3/28 Dynabeads (Invitrogen) were added to a concentration of 100,000 beads per ml. The stimulated cells were immediately dispensed into the assay plate containing serially diluted compound at a volume of 200 μl cells per well. Cell plates were then incubated at 37 °C and 5% CO2 for 4 days. Culture media (100 μl) was collected from each well and IL-17 expression was measured by enzyme-linked immunosorbent assay (R&D Systems) according to the manufacturer's instructions. Cell viability was assessed by the addition of 100 μl of CellTiter-Glo (Promega) to each well of the cell assay plate followed by luminescence detection on an Envision plate reader (PerkinElmer).

RARa = RARa (Homo sapiens, UniProt P10276); assay: Receptor reporter assay selectivity panel: RARa
Description: as §1, §2, §3

RARg = target: T3, RARg (Homo sapiens, UniProt P13631); assay: Receptor reporter assay selectivity panel: RARg
T3 sequence (P13631 185-419 limits assumed): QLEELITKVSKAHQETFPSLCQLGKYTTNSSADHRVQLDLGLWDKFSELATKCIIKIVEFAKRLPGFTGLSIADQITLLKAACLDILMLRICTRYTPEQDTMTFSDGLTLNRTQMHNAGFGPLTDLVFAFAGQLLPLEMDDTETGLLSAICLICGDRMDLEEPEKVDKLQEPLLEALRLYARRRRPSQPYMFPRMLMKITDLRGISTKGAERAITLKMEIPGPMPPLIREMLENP
Description: as §1, §2, §3

ERb = ERb (Homo sapiens, UniProt Q92731); assay: Receptor reporter assay selectivity panel: ERb
Description: as §1, §2, §3

TRb = TRb (Homo sapiens, UniProt P10828); assay: Receptor reporter assay selectivity panel: TRb
Description: as §1, §2, §3

AhR = AhR (Homo sapiens, UniProt P35869); assay: Receptor reporter assay selectivity panel: AhR
Description: as §1, §2, §3

PPARa = PPARa (Homo sapiens, UniProt Q07869); assay: Receptor reporter assay selectivity panel: PPARa
Description: as §1, §2, §3

GR = GR (Homo sapiens, UniProt P04150); assay: Receptor reporter assay selectivity panel: GR
Description: as §1, §2, §3

VDR = VDR (Homo sapiens, UniProt P11473); assay: Receptor reporter assay selectivity panel: VDR
Description: as §1, §2, §3

RARb = RARb (Homo sapiens, UniProt P10826); assay: Receptor reporter assay selectivity panel: RARb
Description: as §1, §2, §3

RXRb = RXRb (Homo sapiens, UniProt P28702); assay: Receptor reporter assay selectivity panel: RXRb
Description: as §1, §2, §3

Chain of PPARd (Q03181 171-441 limits assumed): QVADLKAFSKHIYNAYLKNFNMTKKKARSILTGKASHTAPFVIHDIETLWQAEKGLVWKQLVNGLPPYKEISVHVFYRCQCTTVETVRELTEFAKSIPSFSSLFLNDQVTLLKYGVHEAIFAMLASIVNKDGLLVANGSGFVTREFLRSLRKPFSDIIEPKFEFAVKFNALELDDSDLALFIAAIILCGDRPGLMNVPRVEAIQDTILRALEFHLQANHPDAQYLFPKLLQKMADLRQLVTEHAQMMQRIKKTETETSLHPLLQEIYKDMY
Chain of RXRa (P19793 227-462 limits assumed): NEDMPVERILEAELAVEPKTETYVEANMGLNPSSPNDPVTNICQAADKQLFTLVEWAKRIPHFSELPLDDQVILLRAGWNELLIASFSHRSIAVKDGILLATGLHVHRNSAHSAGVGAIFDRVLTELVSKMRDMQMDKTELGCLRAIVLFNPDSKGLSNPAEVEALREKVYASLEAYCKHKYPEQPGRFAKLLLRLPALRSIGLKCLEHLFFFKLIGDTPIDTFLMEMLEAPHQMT
Chain of FXR (Q96RI1 262-486 limits assumed): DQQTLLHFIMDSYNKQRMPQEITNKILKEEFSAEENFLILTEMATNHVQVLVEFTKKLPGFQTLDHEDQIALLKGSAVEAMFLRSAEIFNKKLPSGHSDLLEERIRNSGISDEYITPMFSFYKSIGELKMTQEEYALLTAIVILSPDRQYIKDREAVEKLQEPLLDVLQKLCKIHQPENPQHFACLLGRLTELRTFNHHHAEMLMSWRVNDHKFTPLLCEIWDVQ
T1 sequence (P51449 269-508 limits assumed): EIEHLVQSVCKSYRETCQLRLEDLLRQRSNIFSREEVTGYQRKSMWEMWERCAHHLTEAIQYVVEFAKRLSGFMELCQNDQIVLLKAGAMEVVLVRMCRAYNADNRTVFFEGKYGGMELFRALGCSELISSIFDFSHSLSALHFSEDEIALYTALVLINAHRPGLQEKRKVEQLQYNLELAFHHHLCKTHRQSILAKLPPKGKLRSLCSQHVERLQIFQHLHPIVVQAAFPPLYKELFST
Chain of LXRa (Q13133 209-447 limits assumed): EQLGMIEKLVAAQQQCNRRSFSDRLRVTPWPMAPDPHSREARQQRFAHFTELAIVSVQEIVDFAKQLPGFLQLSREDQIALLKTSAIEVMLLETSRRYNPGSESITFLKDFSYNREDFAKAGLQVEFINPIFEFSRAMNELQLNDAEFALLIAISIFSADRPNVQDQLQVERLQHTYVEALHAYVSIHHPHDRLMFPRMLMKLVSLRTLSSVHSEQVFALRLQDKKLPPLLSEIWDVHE
Chain of LXRb (P55055 222-460 limits assumed): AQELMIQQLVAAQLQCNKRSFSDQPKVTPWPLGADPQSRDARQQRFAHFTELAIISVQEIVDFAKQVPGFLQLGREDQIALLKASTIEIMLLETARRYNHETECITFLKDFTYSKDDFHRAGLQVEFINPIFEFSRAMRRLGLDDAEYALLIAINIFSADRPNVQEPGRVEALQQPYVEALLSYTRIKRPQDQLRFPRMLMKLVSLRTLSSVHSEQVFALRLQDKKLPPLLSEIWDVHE
Chain of PR (P06401 whole entry): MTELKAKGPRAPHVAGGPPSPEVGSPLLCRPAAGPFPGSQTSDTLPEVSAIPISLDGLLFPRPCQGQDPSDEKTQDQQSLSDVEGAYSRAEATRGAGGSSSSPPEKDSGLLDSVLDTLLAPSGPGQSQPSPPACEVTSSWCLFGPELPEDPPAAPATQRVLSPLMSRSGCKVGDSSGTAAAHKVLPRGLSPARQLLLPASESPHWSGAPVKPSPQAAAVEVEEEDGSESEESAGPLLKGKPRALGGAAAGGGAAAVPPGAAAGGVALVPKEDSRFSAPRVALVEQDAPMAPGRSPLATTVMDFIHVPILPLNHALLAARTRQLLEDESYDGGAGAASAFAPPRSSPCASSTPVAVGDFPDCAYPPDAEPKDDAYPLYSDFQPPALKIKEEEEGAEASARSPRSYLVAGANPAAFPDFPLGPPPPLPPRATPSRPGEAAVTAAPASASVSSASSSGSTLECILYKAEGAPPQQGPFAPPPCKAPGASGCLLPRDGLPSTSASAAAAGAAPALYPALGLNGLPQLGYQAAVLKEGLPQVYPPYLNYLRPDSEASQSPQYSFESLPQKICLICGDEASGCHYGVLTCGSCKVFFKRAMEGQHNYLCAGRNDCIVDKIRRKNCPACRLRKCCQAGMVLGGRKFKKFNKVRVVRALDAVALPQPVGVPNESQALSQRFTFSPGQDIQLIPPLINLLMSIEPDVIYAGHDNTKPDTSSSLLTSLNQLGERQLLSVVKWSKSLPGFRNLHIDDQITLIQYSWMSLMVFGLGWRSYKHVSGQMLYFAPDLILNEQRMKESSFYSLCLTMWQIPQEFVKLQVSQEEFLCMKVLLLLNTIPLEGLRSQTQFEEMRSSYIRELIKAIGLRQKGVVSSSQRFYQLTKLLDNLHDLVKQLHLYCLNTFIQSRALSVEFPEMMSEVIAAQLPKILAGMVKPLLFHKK
Chain of MR (P08235 whole entry): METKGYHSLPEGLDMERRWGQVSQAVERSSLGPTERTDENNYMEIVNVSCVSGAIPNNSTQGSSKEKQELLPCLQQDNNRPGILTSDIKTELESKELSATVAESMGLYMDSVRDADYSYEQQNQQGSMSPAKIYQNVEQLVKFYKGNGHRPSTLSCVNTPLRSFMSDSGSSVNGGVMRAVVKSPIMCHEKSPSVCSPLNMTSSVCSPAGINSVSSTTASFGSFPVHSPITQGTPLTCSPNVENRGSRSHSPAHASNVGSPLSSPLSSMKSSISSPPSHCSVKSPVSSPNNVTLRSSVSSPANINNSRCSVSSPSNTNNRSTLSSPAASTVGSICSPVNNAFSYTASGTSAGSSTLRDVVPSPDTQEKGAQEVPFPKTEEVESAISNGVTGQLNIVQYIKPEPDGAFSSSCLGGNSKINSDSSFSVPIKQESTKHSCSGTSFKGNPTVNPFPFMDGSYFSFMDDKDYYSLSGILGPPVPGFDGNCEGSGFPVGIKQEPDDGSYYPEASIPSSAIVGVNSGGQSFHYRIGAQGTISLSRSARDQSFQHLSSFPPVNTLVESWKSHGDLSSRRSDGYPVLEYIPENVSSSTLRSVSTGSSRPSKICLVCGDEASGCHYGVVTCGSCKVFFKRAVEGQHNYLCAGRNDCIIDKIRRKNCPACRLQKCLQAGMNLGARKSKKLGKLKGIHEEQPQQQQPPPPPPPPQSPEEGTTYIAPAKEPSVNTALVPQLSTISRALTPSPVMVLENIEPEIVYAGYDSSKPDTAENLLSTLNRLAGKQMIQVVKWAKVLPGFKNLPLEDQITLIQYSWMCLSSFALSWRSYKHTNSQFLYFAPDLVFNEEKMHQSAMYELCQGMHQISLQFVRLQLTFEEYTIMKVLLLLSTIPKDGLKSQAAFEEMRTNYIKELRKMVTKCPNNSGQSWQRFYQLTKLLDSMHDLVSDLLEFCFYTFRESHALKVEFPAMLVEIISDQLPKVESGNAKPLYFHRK
Chain of PPARg (P37231 232-505 limits assumed): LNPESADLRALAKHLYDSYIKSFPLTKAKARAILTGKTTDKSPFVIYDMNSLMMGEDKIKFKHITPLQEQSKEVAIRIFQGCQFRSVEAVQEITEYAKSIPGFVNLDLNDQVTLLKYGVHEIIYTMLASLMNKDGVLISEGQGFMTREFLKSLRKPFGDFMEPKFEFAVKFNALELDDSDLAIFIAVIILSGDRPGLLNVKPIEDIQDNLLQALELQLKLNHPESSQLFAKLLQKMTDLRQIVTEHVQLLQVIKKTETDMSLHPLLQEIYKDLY
Chain of TRb (P10828 217-461 limits assumed): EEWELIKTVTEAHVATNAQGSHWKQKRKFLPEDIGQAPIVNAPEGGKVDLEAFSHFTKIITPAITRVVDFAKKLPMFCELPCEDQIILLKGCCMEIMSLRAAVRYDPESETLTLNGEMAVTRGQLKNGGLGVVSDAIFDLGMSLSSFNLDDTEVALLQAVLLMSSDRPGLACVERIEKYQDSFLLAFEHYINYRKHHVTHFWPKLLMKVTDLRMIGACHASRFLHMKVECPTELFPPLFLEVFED
Chain of PPARa (Q07869 200-468 limits assumed): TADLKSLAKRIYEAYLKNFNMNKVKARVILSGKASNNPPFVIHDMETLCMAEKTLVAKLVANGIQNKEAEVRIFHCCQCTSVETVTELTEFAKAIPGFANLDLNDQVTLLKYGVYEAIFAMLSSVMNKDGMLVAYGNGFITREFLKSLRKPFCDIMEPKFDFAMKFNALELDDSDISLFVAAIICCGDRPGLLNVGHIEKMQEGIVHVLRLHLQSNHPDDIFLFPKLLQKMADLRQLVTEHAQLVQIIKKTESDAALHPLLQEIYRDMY
Chain of ERa (P03372 whole entry): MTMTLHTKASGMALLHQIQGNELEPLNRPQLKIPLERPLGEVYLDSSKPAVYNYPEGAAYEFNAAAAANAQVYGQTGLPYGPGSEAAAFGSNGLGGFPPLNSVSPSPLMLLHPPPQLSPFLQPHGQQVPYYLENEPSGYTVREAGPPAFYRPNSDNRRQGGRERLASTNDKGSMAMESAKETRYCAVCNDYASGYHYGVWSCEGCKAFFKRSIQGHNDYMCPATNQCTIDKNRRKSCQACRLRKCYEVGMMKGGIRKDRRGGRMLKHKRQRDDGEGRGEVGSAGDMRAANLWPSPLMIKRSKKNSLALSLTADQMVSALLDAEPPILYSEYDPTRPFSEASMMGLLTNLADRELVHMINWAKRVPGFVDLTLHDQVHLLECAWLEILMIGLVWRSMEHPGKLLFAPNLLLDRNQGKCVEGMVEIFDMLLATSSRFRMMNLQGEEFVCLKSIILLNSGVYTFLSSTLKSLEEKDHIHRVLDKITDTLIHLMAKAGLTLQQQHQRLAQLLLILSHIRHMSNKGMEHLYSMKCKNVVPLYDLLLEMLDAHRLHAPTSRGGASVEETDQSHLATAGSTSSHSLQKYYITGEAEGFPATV
Chain of AhR (P35869 275-386 limits assumed): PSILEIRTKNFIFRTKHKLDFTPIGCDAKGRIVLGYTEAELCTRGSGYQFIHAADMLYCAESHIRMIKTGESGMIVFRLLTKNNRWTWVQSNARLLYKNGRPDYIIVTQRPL

effect on interaction of RORγt-LBD with cofactor peptide (human RORγt LBD): weak activator
Compound: CC(C)CCC[C@@H](C)[C@H]1CC[C@H]2[C@@H]3CC=C4C[C@@H](O)CC[C@]4(C)[C@H]3CC[C@]12C [Cholesterol, cholesterol, reference compound]

IC50 ([1]; human MSCs under adipogenic conditions, data not shown): 5.4 µM | IC50 ([2]; human MSCs, data not shown): 1 µM
Compound: O=C(Nc1ccccc1)c1cc([N+](=O)[O-])ccc1Cl [GW9662, reference compound]

IC50 (human RORγt LBD; read-out: IC50, inhibition of coactivator binding (cofactor peptide recruitment)): 0.28 ± 0.117 µM
Compound: O=C(O)c1ccc(-c2nn(C(=O)c3ccccc3)c3ccccc23)cc1 [MRL-003]
IL17a mRNA levels [3]: did not reduce

Compound: O=C(O)c1ccc(-c2nn(C(=O)c3ccccc3C(F)(F)F)c3ccccc23)cc1 [MRL-058]
IL17a mRNA levels [3]: significantly reduced

Compound: O=C(O)c1ccc(-c2nn(C(=O)c3c(Cl)cccc3C(F)(F)F)c3cccc(F)c23)c(F)c1 [MRL-299]
EC50 (RXRa): > 30 µM | IC50 (RXRa): 7.42 µM | EC50 (CAR3): > 30 µM | EC50 (TRa): > 30 µM | IC50 (TRa): 4.49 µM | IC50 ([1]; Homo sapiens, Mesenchymal stem cells): ~50 µM | EC50 (LXRb): > 30 µM | IC50 (LXRb): 21.5 µM | EC50 (RXRg): > 30 µM | EC50 (CAR2): > 30 µM | EC50 (PPARd): > 30 µM | IC50 (PPARd): 28 µM | EC50 (ERa): > 30 µM | IC50 (ERa): > 30 µM | IC50 ([2]; Homo sapiens): ~30 µM | induction of CD36 gene expression [4]: no induction | induction of FABP4 gene expression [4]: no induction | EC50 (AR): > 30 µM | IC50 (AR): 12 µM | IC50 (CAR1): 16.7 µM | EC50 (PPARg): 0.686 µM | IC50 (PPARg): 0.517 µM | EC50 (PR): > 30 µM | IC50 (PR): > 30 µM | EC50 (PXR): 4.62 µM | IC50 (PXR): > 30 µM | agonist maximum, % of rifampicin max (PXR; PXR, relative to rifampicin control): 63% | EC50 (FXR): > 30 µM | IC50 (FXR): 13.6 µM | EC50 (MR): > 30 µM | IC50 (MR): 20 µM | EC50 (LXRa): > 30 µM | IC50 (LXRa): 23.2 µM | IC50 [5]: 0.0094 ± 0.0052 µM | EC50 (RARa): > 30 µM | EC50 (RARg): 0.364 µM | IC50 (RARg): 3.11 µM | agonist maximum, % of ATRA max (RARg; RARg, relative to ATRA control): 20% | EC50 (ERb): > 30 µM | IC50 (ERb): 10.8 µM | EC50 (TRb): > 30 µM | IC50 (TRb): 5.73 µM | EC50 (AhR): > 30 µM | EC50 (PPARa): > 30 µM | IC50 (PPARa): 19.1 µM | EC50 (GR): > 30 µM | IC50 (GR): 18.5 µM | EC50 (VDR): > 30 µM | IC50 (VDR): > 30 µM | EC50 (RARb): > 30 µM | IC50 (RARb): 12.3 µM | EC50 (RXRb): > 30 µM | IC50 (RXRb): 28 µM

Compound: O=C(O)c1ccc(-c2nn(C(=O)c3c(Cl)cccc3C(F)(F)F)c3ccccc23)cc1 [MRL-871]
IC50 [5]: 0.0396 ± 0.018 µM | IL17a mRNA levels [3]: significantly reduced

Compound: CN(CCOc1ccc(CC2SC(=O)NC2=O)cc1)c1ccccn1 (stereo not drawn) [Rosiglitazone, rosiglitazone, reference compound]
induction of CD36 gene expression [4]: 3 fold | induction of FABP4 gene expression [4]: 2 fold
